Data published in ChEMBL document CHEMBL5390237, “Discovery of Selective Histone Deacetylase 1 and 2 Inhibitors: Screening of a Focused Library Constructed by Click Chemistry, Kinetic Binding Analysis, and Biological Evaluation” (J Med Chem, 2023).
The source made the active and inactive calls. The calls are words filed in the database; no cut-off is given here.

Legend:
[1] = molecular target: T1, Histone deacetylase 8 (Homo sapiens, UniProt Q9BY41); assay: Inhibition of full-length recombinant human C-terminal His-tagged HDAC8 expressed in Sf9 insect cells using aminoluciferin peptide substrate preincubated for 3 hrs followed by substrate addition and measured after 30 mins by HDAC-Glo I/II chemiluminescence assay
T1 sequence (Q9BY41 whole entry): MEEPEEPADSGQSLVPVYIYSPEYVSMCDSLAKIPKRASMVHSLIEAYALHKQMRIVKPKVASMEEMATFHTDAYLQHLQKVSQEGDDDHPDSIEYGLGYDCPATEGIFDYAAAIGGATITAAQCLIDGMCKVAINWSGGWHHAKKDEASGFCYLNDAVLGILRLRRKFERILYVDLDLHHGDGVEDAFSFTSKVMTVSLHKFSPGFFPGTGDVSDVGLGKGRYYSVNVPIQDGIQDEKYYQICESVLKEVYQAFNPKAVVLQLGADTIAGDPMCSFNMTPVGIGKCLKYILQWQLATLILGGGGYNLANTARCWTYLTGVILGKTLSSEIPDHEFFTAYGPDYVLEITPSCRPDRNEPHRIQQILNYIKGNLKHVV

[2] = molecular target: Histone deacetylase 4 (Homo sapiens) (UniProt P56524); assay: Inhibition of recombinant human HDAC4 using fluorogenic substrate preincubated for 3 hrs followed by substrate addition and measured after 30 mins by fluorescence analysis; conditions: time 3.5 hrs
Chain of Histone deacetylase 4 (Homo sapiens) (P56524 whole entry): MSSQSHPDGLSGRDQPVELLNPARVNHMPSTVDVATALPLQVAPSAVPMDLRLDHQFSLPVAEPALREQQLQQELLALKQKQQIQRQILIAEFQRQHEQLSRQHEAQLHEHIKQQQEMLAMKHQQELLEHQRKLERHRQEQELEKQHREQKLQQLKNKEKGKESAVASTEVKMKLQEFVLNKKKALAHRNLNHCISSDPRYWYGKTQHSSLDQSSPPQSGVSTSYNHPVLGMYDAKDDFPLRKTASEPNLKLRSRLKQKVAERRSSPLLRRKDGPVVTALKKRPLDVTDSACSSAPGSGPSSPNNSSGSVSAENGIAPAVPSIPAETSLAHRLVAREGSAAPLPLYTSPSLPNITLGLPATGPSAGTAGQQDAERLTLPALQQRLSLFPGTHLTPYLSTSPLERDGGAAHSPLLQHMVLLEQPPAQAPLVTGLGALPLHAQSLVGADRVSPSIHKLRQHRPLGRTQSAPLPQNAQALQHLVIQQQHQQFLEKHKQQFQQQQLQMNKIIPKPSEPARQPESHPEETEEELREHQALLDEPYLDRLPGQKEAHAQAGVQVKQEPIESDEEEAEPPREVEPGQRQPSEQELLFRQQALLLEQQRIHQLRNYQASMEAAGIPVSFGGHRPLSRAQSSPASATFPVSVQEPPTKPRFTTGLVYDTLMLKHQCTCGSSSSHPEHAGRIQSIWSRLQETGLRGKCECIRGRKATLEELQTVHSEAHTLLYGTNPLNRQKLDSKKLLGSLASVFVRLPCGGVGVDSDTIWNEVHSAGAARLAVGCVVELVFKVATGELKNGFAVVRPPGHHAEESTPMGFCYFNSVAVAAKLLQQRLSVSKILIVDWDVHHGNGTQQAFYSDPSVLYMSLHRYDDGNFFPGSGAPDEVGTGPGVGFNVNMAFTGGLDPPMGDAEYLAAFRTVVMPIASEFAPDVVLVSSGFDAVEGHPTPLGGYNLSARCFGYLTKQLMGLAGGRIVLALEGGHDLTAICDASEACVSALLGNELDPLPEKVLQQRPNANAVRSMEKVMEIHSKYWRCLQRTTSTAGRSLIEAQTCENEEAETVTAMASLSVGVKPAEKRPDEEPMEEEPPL

[3] = test system: MCF7; assay: Upregulation of TP53INP1 gene expression in human MCF7 cells at 2 uM incubated for 24 hrs by RT-qPCR analysis; assay type: functional, cell-based
[4] = molecular target: T2, Protein deacetylase HDAC6 (Homo sapiens) (UniProt Q9UBN7); assay: Inhibition of full-length recombinant human C-terminal GST tagged HDAC6 expressed in Sf9 insect cells using aminoluciferin peptide substrate preincubated for 3 hrs followed by substrate addition and measured after 30 mins by HDAC-Glo I/II chemiluminescence assay; conditions: time 3.5 hrs
T2 sequence (whole entry): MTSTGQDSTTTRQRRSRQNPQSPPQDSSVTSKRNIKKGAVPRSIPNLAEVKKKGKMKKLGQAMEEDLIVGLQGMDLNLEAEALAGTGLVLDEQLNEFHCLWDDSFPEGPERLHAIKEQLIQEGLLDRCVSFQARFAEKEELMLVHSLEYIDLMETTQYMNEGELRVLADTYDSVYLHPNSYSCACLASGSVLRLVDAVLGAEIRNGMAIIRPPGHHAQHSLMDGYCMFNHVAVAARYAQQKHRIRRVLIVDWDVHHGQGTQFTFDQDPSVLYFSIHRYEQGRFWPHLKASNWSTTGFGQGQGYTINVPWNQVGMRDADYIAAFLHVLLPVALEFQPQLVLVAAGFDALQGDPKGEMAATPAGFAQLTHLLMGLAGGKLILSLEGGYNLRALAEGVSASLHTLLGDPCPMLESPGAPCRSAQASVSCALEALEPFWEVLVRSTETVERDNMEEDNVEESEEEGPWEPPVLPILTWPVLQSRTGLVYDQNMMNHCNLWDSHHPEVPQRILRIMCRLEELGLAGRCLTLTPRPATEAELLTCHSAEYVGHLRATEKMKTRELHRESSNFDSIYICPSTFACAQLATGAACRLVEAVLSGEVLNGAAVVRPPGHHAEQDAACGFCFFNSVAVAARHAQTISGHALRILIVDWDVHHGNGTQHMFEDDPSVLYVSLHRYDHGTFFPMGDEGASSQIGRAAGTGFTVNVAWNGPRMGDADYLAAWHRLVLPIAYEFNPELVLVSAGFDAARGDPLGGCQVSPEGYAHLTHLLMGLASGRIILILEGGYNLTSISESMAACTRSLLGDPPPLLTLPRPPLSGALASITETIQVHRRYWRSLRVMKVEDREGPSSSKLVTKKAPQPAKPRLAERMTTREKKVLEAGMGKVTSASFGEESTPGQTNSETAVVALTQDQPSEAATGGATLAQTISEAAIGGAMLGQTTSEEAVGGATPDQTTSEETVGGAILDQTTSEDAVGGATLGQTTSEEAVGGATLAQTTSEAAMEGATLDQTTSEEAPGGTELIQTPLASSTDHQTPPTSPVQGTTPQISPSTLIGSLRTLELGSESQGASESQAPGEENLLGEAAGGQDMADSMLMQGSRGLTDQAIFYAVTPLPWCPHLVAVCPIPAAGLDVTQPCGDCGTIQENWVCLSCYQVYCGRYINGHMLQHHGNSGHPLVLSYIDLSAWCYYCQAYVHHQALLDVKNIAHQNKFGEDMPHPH

[5] = test system: MCF7; assay: Downregulation of E2F8 gene expression in human MCF7 cells at 2 uM incubated for 24 hrs by microarray analysis; assay type: functional, cell-based
[6] = molecular target: T3, Histone deacetylase 2 (Homo sapiens, UniProt Q92769); assay: Inhibition of full-length recombinant human C-terminal GST tagged HDAC2 expressed in Sf9 insect cells using aminoluciferin peptide substrate at 100 nM preincubated for 3 hrs followed by substrate addition and measured after 30 mins by HDAC-Glo I/II chemiluminescence assay; conditions: time 3.5 hrs
T3 sequence (Q92769 whole entry): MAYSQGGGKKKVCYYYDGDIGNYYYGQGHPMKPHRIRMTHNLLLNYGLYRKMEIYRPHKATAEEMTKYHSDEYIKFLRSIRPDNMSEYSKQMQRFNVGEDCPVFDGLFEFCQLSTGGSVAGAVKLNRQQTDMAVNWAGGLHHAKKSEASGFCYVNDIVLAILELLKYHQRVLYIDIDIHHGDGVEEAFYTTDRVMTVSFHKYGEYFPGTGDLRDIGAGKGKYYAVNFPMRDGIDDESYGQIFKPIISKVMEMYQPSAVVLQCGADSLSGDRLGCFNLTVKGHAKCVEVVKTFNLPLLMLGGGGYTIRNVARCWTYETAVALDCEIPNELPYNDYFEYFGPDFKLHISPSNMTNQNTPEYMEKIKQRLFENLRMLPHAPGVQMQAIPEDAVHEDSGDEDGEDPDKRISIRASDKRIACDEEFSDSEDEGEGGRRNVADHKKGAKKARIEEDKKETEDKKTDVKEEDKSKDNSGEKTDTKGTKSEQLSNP

[7] = test system: MCF7; assay: cells; assay type: functional; conditions: Homo sapiens, time 48 hrs
Description: Anticancer activity against human MCF7 cells overexpressing HDAC1 and HDAC2 assessed as inhibition of cell growth incubated for 48 hrs by sulforhodamine B assay

[8] = test system: MCF7; assay: Upregulation of ERRF1 gene expression in human MCF7 cells at 2 uM incubated for 24 hrs by RT-qPCR analysis; assay type: functional, cell-based
[9] = test system: MCF7; assay: Downregulation of E2F1 gene expression in human MCF7 cells at 2 uM incubated for 24 hrs by microarray analysis; assay type: functional, cell-based
[10] = test system: MCF7; assay: Upregulation of TES gene expression in human MCF7 cells at 2 uM incubated for 24 hrs by RT-qPCR analysis; assay type: functional, cell-based
[11] = Cytotoxicity against human HMEC cells assessed as inhibition of cell viability incubated for 3 days by AlamarBlue based fluorescence analysis
[12] = molecular target: Histone deacetylase (Homo sapiens) (UniProt Q13547+O15379+Q9UBN7+Q92769+Q9UQL6+Q8WUI4+Q9BY41+Q96DB2+P56524+Q9UKV0+Q969S8); conditions: MCF7, dose 1.0 µM, time <= 48.0 hrs
[13] = molecular target: T3, Histone deacetylase 2; assay: biochemical; assay type: cell-based, Sf9
[14] = test system: MCF7; assay: Upregulation of GADD45A gene expression in human MCF7 cells at 2 uM incubated for 24 hrs by RT-qPCR analysis; assay type: functional, cell-based
[15] = molecular target: T3, Histone deacetylase 2; conditions: Sf9, dose 30-100 nM, time 3.5 hrs
[16] = molecular target: Histone deacetylase 1 (Homo sapiens, UniProt Q13547); assay: Inhibition of full-length recombinant human C-terminal GST tagged HDAC1 expressed in Sf9 insect cells using aminoluciferin peptide substrate preincubated for 3 hrs followed by substrate addition and measured after 30 mins by HDAC-Glo I/II chemiluminescence assay
Chain of Histone deacetylase 1 (Q13547 whole entry): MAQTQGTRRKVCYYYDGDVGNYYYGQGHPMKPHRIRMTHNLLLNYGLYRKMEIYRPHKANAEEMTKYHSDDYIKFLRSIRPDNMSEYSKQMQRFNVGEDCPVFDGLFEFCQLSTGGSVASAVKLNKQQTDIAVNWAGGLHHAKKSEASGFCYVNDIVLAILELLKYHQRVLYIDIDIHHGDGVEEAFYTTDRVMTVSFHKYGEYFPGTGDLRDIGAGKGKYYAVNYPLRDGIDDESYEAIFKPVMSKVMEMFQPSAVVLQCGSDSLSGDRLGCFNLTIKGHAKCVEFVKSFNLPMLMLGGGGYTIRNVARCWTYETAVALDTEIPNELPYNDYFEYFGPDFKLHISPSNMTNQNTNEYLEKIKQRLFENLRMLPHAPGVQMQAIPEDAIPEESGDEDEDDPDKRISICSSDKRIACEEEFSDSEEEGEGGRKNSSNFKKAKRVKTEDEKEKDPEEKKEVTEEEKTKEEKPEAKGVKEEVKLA

[17] = test system: MCF7; assay: Downregulation of CCNE2 gene expression in human MCF7 cells at 2 uM incubated for 24 hrs by microarray analysis; assay type: functional, cell-based
[18] = molecular target: Histone deacetylase 5 (Homo sapiens) (UniProt Q9UQL6); assay: Inhibition of recombinant human HDAC5 using fluorogenic substrate preincubated for 3 hrs followed by substrate addition and measured after 30 mins by fluorescence analysis; conditions: time 3.5 hrs
Chain of Histone deacetylase 5 (Homo sapiens) (Q9UQL6 whole entry): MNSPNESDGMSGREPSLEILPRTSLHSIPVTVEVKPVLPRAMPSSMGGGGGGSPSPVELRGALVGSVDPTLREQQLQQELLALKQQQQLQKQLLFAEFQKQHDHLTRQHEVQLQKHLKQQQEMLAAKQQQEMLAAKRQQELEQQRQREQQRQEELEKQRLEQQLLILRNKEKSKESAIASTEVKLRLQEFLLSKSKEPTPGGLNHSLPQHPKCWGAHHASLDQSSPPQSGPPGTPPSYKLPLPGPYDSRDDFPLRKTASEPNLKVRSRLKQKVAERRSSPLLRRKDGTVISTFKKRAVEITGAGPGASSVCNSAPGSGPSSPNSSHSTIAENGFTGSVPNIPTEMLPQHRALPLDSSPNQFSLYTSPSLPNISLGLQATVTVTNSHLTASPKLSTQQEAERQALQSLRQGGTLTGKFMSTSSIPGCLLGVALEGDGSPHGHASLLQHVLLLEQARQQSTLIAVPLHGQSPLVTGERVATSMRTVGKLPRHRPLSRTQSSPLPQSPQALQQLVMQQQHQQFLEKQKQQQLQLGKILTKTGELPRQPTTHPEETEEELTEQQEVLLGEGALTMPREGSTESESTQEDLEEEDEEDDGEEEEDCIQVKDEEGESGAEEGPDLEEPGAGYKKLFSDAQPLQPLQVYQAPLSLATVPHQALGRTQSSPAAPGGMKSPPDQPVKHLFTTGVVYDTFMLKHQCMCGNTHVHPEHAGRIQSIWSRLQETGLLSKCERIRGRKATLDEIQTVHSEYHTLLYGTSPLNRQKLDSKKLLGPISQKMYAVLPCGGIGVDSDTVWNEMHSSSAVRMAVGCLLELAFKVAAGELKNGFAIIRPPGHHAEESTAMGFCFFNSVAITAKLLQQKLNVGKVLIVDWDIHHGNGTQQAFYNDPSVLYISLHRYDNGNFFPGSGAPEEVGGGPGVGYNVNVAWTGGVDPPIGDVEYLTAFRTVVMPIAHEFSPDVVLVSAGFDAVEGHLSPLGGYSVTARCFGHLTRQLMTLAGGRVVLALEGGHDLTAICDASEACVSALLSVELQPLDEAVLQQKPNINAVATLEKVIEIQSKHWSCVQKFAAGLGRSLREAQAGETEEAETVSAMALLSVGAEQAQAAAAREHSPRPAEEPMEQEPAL

SMILES | IC50 [1] [nM] | inhibition [2] | Activity [3] | inhibition [4] | Activity [5] | inhibition [6] [%] | GI50 [7] [nM] | Activity [8] | Activity [9] | Activity [10] | IC50 at 3 days [11] [nM] | TDI [12] | Ki [13] [nM] | Activity [14] | inhibition [15] | IC50 [16] [nM] | Activity [17] | inhibition [18]
Nc1ccc(-c2cccs2)cc1NC(=O)c1ccc(-c2cn(C[S+]([O-])c3ccccc3)nn2)cc1 (centres undefined) | 4450 | inactive | Active | inactive | Active | 87 | 1860 | Active | Active | Active | > 10000 | Active | 22 | Active | Dose-Dependent Effect | 8.2 | Active | inactive
Nc1ccc(-c2cccs2)cc1NC(=O)c1ccc(-c2cn(CS(=O)(=O)c3ccccc3)nn2)cc1 | > 10000 | inactive | Active | inactive | Active | 77 | 43 | Active | Active | Active | 9850 | Active | 6.2 | Active | Dose-Dependent Effect | 12 | Active | inactive
Nc1ccc(-c2cccs2)cc1NC(=O)c1ccc(-c2cn(CCc3ccccn3)nn2)cc1 | > 10000 | inactive | Active | inactive | Active | 81 | 52500 | Active | Active | Active | 4350 | Active | 9.8 | Active | Dose-Dependent Effect | 6.5 | Active | inactive
